Data on 2 compounds can be found in paper PMC5877439 (British Journal of Cancer, 2018).

Data set [1] can be described thus: Plasma MK-0752 PK analysis. Format: in vivo, human.
A short description of data set [2]: Tumour MK-0752 concentration in biopsies. Format: in vivo, human. As to conditions: between the 1500 and 2100 mg doses; data limited.
The nature of data set [3]: Safety, tolerability, DLT and MTD. Format: in vivo, human.
Data set [4] has as its system Notch signalling. The data set can be described thus: Notch signature score in plucked hair follicles. Format: in vivo, human. As to conditions: number of samples limited.
For data set [5] the following is noted: ref Krop et al, 2012, cited from earlier work.

On to `O=C(O)CC[C@H]1CC[C@@](c2cc(F)ccc2F)(S(=O)(=O)c2ccc(Cl)cc2)CC1` [MK-0752], for which, in data set [1] (1200-2400 mg once weekly), the “MK-0752 plasma exposure across the dose groups” value is on record as “no increment in exposure beyond the RP2D single-agent dose (1800 mg weekly)”. In data set [1] (day 1 (MK-0752+gemcitabine) vs day -7 (MK-0752 alone), 40 patients), the “Plasma MK-0752 exposure (AUC0-t) and Cmax, effect of gemcitabine” value is on record as “did not appear to be affected by the addition of gemcitabine”. In addition, the “Tumour MK-0752 concentration across doses” value in data set [2] was “no increment”. For the same compound, the “MTD / RP2D of MK-0752 in combination with gemcitabine” value in data set [3] (p.o. once weekly, with gemcitabine 1000 mg m^-2) is on record as 1800 mg. Moreover, the “Relationship between MK-0752 dose and fold-change in Notch score” value in data set [4] is on record as “no relationship”. Moreover, the “Drug exposure with dose, single agent” value in data set [5] (phase I studies of MK-0752 alone) was “no significant increase in drug exposure between 1800 mg and 3200 mg”. The “Recommended dose for phase II evaluation (RP2D), single agent” value in data set [5] (single-agent studies) is recorded as 1800 mg. Moreover, the “Maximum tolerated dose (MTD), single agent” value in data set [5] (weekly schedule, MK-0752 alone) was 3200 mg.
As for `Nc1ccn([C@@H]2O[C@H](CO)[C@@H](O)C2(F)F)c(=O)n1` [gemcitabine, 2′,2′,-difluoro-2′,-deoxycytidine, reference compound], in data set [3] (i.v. days 1, 8 and 15 of 28 day cycle, with MK-0752 1800 mg), the “MTD / RP2D of gemcitabine in combination with MK-0752” value was 1000 mg m^-2.
